Several values for one entry are separate records, joined by “and”; a condition that tells them apart may be missing. Equal entries are not always repeated.
Tested on: HIV transcripts (TAR, LLTR, Pol, PolyA, TatRev)
Test: Latency reversal assay: cell-associated HIV transcripts (RT-ddPCR) 24 hours after anti-CD3/CD28 activation of PBMCs from ART-suppressed PWH
Type: cell-based
Set-up: key to TatRev: % of activated DMSO control, normalized to 1 μg total RNA; Elongated (LLTR) HIV transcripts, median relative to activated DMSO, initial screening / Midtranscribed (Pol) HIV transcripts, median relative to activated DMSO, initial screening / Multiply spliced (TatRev) HIV transcripts, median relative to activated DMSO, initial screening: concentration or dose not given beside the values
Details: for HIV transcriptional elongation, ratio LLTR/TAR: Figure 3B; for Multiply spliced (TatRev) HIV transcripts, median relative to activated DMSO, initial screening: Figure 1B; for Multiply spliced (TatRev) HIV transcripts, median relative to activated DMSO, initial screening / Elongated (LLTR) HIV transcripts, median relative to activated DMSO, initial screening / Midtranscribed (Pol) HIV transcripts, median relative to activated DMSO, initial screening: Supplemental Figure 2; for Pol HIV transcripts (DMSO αCD3/28 = 100) / PolyA HIV transcripts (DMSO αCD3/28 = 100) / TatRev HIV transcripts (DMSO αCD3/28 = 100): αCD3/28-activated, ruxolitinib 4μM, triptolide 25-50nM, alvocidib 40nM, dinaciclib 8nM, AZD4573 8nM, quercetin 5μM, pladienolide B 10nM, isoginkgetin 25μM, herboxidiene 5nM, KRIBB11 2.5μM, tanespimycin 5μM, mithramycin A 25nM; for PolyA / TatRev: DMSO+αCD3/28 = 100, Fig 3A; for LLTR/TAR / PolyA/LLTR / TatRev/PolyA: DMSO+CD3/28 = 1, Fig 3B, C and D; for Effect on HIV transcripts in the initial drug screen (in words): 24 hours after activation
Procedure: We selected 26 small molecules targeting pathways implicated in HIV transcription or the blocks to HIV transcription underlying latency (Supplemental Table 1). […] Initial screening of all drugs was performed in freshly isolated PBMCs from 2 ART-suppressed individuals (Figure 1 and Supplemental Figure 2). PBMCs were cultured in the presence of individual drugs in DMSO or DMSO alone as a control, subsequently activated (anti-CD3/CD28), and harvested after 24 hours. […] The progression through different blocks to HIV transcription was quantified by measuring the levels of initiated (TAR), 5′ elongated (LLTR), midtranscribed/unspliced (Pol), completed (PolyA), and multiply spliced (TatRev) HIV transcripts. The levels of those HIV transcripts were normalized to 1 μg of total cellular RNA (to normalize for the effect of the drug on global cellular transcription) and expressed as a percentage of the activated DMSO control.
Figure 1 Screening of candidate LPAs by measuring the change in multiply spliced HIV transcripts after activation. Each drug was tested in PBMCs from 2 ART-suppressed study participants (denoted in the legend by varying symbol shapes). PBMCs were aliquoted into wells at 6 × 10^6 cells/well. After activation, the cells were cultured with antiretrovirals in the presence of individual drugs in DMSO or DMSO alone as control. All conditions were tested in the presence of CD3/28 T cell–activating beads, except for the unactivated DMSO condition. (A) After 24 hours, the viability was measured by trypan blue staining and then normalized to the levels of the activated DMSO (% of activated DMSO). Bars indicate medians. (B) Total cellular RNA was extracted, and the levels of multiply spliced HIV transcripts (TatRev) were measured by RT-ddPCR, normalized to 1 μg of total cellular RNA, and expressed as a percentage of the activated DMSO control (% of activated DMSO). RT-dd, reverse transcription digital droplet; vRNA, viral RNA; HAT, histone acetyltransferase.
The ability of our candidate LPAs to inhibit HIV transcriptional progression after activation was examined in PBMCs from a minimum of 7 PWH per drug tested (Figure 3). PBMCs were cultured in the presence of individual drugs in DMSO or in DMSO alone as a control, subsequently activated (anti-CD3/CD28), and harvested after 24 hours.
Each drug was tested in PBMCs from 7 ART-suppressed study participants. The PBMCs were aliquoted into wells at 6 × 10^6 cells/well. After activation, the cells were cultured with antiretrovirals in the presence of individual drugs in DMSO or DMSO alone as control. All conditions were tested in the presence of CD3/28 T cell–activating beads, except for the unactivated DMSO condition. After 24 hours, total RNA was extracted, and the progression through different stages of HIV transcription was quantified by measuring the levels of initiated (TAR), 5′ elongated (LLTR), midtranscribed/unspliced (Pol), completed (PolyA), and multiply spliced (TatRev) HIV transcripts. (A) The levels of all HIV transcripts were normalized to 1 μg of total cellular RNA and expressed as a percentage of the activated DMSO control (% of activated DMSO). Medians are shown as well as the individual values per study participant in different colors. (B–D) The effect of each drug on HIV transcriptional progression after activation was analyzed by the ratio of one HIV transcript to another. Ratios are independent of HIV infection frequency or normalization to cell numbers. Shown are the proportion of (B) all HIV transcripts that were elongated (LLTR/TAR), (C) elongated HIV transcripts that were completed spliced (PolyA/LLTR), and (D) completed transcripts that were multiply spliced (TatRev/PolyA).

[1] = 5nM, 24 h after αCD3/28 activation, each column one participant
[2] = 24 hours, compared with activated DMSO
[3] = initial screening, 2 participants, 24 hours

## CO[C@H]([C@@H](C)[C@H]1O[C@]1(C)C[C@H](C)/C=C/C=C(\C)[C@H]1O[C@@H](CC(=O)O)CC[C@@H]1C)[C@@H](C)O [herboxidiene]
[1]
  LLTR HIV transcripts (DMSO+αCD3/28 = 100): 81.19 and 43.81 and 65.61 and 39.82 and 46.55 and 19.9 and 41.59
  Pol HIV transcripts (DMSO+αCD3/28 = 100): 51.16 and 73 and 22.91 and 16.22 and 3.35 and 168.38
  TAR HIV transcripts (DMSO+αCD3/28 = 100): 84.02 and 77.63 and 124.48 and 122.07 and 106.99 and 116.67
  TatRev HIV transcripts (DMSO+αCD3/28 = 100): 33.33 and 25.2 and 10.9 and 51.8 and 0 (2×)
[2]
  HIV transcriptional elongation, ratio LLTR/TAR: Significant reductions
[3]
  Reduction of multiply spliced or completed HIV transcripts in drug screen (selection as candidate LPA): more than 50%
  Multiply spliced (TatRev) HIV transcripts, median relative to activated DMSO, initial screening: 23%
Participant 150b
  Pol HIV transcripts (DMSO αCD3/28 = 100): 43.29
  PolyA HIV transcripts (DMSO αCD3/28 = 100): 23.53
  TatRev HIV transcripts (DMSO αCD3/28 = 100): 2.69
Participant 1379
  Pol HIV transcripts (DMSO αCD3/28 = 100): 47.94
  PolyA HIV transcripts (DMSO αCD3/28 = 100): 28.08
  TatRev HIV transcripts (DMSO αCD3/28 = 100): 171.43
Participant 2027
  Pol HIV transcripts (DMSO αCD3/28 = 100): 133.33
  PolyA HIV transcripts (DMSO αCD3/28 = 100): 36.92
  TatRev HIV transcripts (DMSO αCD3/28 = 100): 0
Participant 2147a
  Pol HIV transcripts (DMSO αCD3/28 = 100): 105.88
  PolyA HIV transcripts (DMSO αCD3/28 = 100): 21.76
  TatRev HIV transcripts (DMSO αCD3/28 = 100): 28.42
Participant 2161
  Pol HIV transcripts (DMSO αCD3/28 = 100): 169.45
  PolyA HIV transcripts (DMSO αCD3/28 = 100): 268.67
  TatRev HIV transcripts (DMSO αCD3/28 = 100): 176.87
Participant 2256
  Pol HIV transcripts (DMSO αCD3/28 = 100): 18.46
  PolyA HIV transcripts (DMSO αCD3/28 = 100): 16.27
  TatRev HIV transcripts (DMSO αCD3/28 = 100): 1.4
Participant 2461
  PolyA HIV transcripts (DMSO αCD3/28 = 100): 1692.31
Participant 5557
  Pol HIV transcripts (DMSO αCD3/28 = 100): 23.16
  PolyA HIV transcripts (DMSO αCD3/28 = 100): 23.33
  TatRev HIV transcripts (DMSO αCD3/28 = 100): 0
Study participant 150a, 24 hours
  Multiply spliced HIV transcripts (TatRev) (Fig 1B): 33.33 % of activated DMSO
Study participant 150a
  PolyA: 73.21
  TatRev: 33.33
Study participant 1379
  LLTR/TAR: 0.186
  PolyA/LLTR: 0.4248
  TatRev/PolyA: 0
  PolyA: 8.45
  TatRev: 0
Study participant 2027
  LLTR/TAR: 0.85
  PolyA/LLTR: 0.67
  PolyA: 43.76
Study participant 2147b, 24 hours
  Multiply spliced HIV transcripts (TatRev) (Fig 1B): 12.13 % of activated DMSO
Study participant 2147b
  LLTR/TAR: 0.2964
  PolyA/LLTR: 0.9546
  TatRev/PolyA: 0.3499
  PolyA: 22.4
  TatRev: 10.9
Study participant 2256
  LLTR/TAR: 0.3813
  PolyA/LLTR: 0.9973
  TatRev/PolyA: 1.116
  PolyA: 46.43
  TatRev: 51.8
Study participant 2750
  LLTR/TAR: 0.5214
  PolyA/LLTR: 1.543
  TatRev/PolyA: 0.3728
  PolyA: 67.59
  TatRev: 25.2
Study participant 5557
  LLTR/TAR: 0.3565
  PolyA/LLTR: 0.117
  TatRev/PolyA: 0
  PolyA: 4.86
  TatRev: 0

## N#CC[C@H](C1CCCC1)n1cc(-c2ncnc3[nH]ccc23)cn1 [ruxolitinib]
Human immunodeficiency virus 1, PBMC, 24 h, 4μM, 24 h after αCD3/28 activation, each column one participant, read-out: TAR HIV transcripts (DMSO+αCD3/28 = 100)
  mrna remaining at 4 µM: 34.5%

## C=CCNC1=C2C[C@@H](C)C[C@H](OC)[C@H](O)[C@@H](C)/C=C(\C)[C@H](OC(N)=O)[C@@H](OC)/C=C\C=C(/C)C(=O)NC(=CC1=O)C2=O [tanespimycin]
[2]
  HIV transcriptional elongation, ratio LLTR/TAR: inhibited
[3]
  Elongated (LLTR) HIV transcripts, median relative to activated DMSO, initial screening: 49%
  Midtranscribed (Pol) HIV transcripts, median relative to activated DMSO, initial screening: 31%

## CC(C)[C@]12O[C@H]1[C@@H]1O[C@]13[C@]1(O[C@H]1C[C@H]1C4=C(CC[C@@]13C)C(=O)OC4)[C@@H]2O [triptolide]
[2]
  HIV transcriptional elongation, ratio LLTR/TAR: no impact
24 hours, compared with activated DMSO, Figure 3C
  HIV transcriptional completion, ratio PolyA/LLTR: reduced completion
24 hours, compared with activated DMSO, Figure 3D
  HIV multiple splicing, ratio TatRev/PolyA: reduce HIV multiple splicing
After activation, relative to activated DMSO
  Decrease in initiated TAR transcripts: more than 95%
[3]
  Multiply spliced (TatRev) HIV transcripts, median relative to activated DMSO, initial screening: 0%
  Elongated (LLTR) HIV transcripts, median relative to activated DMSO, initial screening: 21%
  Midtranscribed (Pol) HIV transcripts, median relative to activated DMSO, initial screening: 9%

## mithramycin A
Initial screening, 2 participants
  Effect on HIV transcripts in the initial drug screen (in words): no effect after 24 hours
Initial screening, 2 participants, listed as Mithramycin A
  Effect on HIV transcripts in the initial drug screen (in words): lack of an effect at 24 hours

— article PMC11466185, “Mechanisms and efficacy of small molecule latency-promoting agents to inhibit HIV reactivation ex vivo” (JCI Insight, 2024)
